From patent US20170182077A1, “METHODS AND PHARMACEUTICAL COMPOSITIONS FOR THE TREATMENT OF ACUTE EXACERBATIONS OF CHRONIC OBSTRUCTIVE PULMONARY DISEASE” (INSERM (INSTITUT NATIONAL DE LA SANTÉ ET DE LA RECHERCHE …, priority 2014, published 2017)

Key:
[1] = system: lung cells (NKT cells) from Air and COPD mice; assay: Cytokine production by total lung cells stimulated with alpha-GalactosylCeramide (ELISA); type: cell-based, C57B1/6 mice; details: αGC 100 ng/ml, 48 hrs; for production of IL-22: after Sp challenge vs non infected, ELISA of supernatants
Method: FIG. 3—Lung cells from Air and COPD mice were treated with αGC (100 ng/ml) or not (Ctl, non stimulated) for 48 hrs. The concentrations of IL-22, IL-17, IFN-γ and IL-4 were analyzed by ELISA in the supernatants. Values represented the mean±SEM.
C57B1/6 mice were exposed to CS generated from 5 cigarettes per day, 5 days a week, over a period of 12 weeks using a smoking machine (Emka, Scireq, Canada).
Mice were inoculated with a clinical isolate of S. pneumoniae serotype 1 (Sp) (5×10^4 cfu). Bacteria stocks were kept frozen at −80° C. Bacteria were thawn just before infection, and the number of cfu was checked on chocolate plates. Infection was performed by intranasal route (50 μl/mouse).
Cytokine production was analyzed in total lung cells. For this, 5×10^5 lung cells were seeded on 96-well plates and then stimulated with alpha-GalactosylCeramide, or α-GC (100 ng/ml), and coated anti-CD3 Ab. Forty-eight hours later, supernatants were collected and analyzed for IFN-γ, IL-4, IL-17 and IL-22 concentration by ELISA (R&D Systems).

[2] = system: peripheral blood mononuclear cells (PBMC); assay: Th17 cytokine secretion by peripheral blood mononuclear cells exposed to S. pneumoniae or PHA; type: cell-based, human; details: PHA 1 μg/ml, supernatants after 24 h
Method: Peripheral blood and induced or spontaneous sputum were collected in stable COPD patients (n=10), in smokers (without COPD, n=13)) and in non smoker healthy controls (n=14) (CPP 2008-A00690-55) in order to evaluate ex vivo the Th17 response to infection with S. pneumoniae. Peripheral blood mononuclear cells (PBMC) were purified on Ficoll Paque gradient and 3×10^6 cells/ml in complete RPMI1640 were exposed to S. pneumoniae (MOI=2) or to a positive control, phytohemagglutinin (1 μg/ml) (PHA, Difco). After 90 min, antibiotics were added to stop bacteria growth and supernatants were collected after 24 h incubation. In parallel, another batch of cells was incubated with brefeldin-A (10 μg/ml, Sigma) for 4 h before collection and was used for intracellular immuno-staining of cytokines in lymphocytes.

[3] = pulmonary cells from Air and COPD mice, after Sp infection, ELISA

| Compound | IL-17 production ([1]; pulmonary cells from Air and COPD mice, after Sp challenge, ELISA) | levels of IFN-y [1, 3] | levels of IL-4 [1, 3] | production of IL-22 ([1]; pulmonary cells from Air mice) | production of IL-22 ([1]; pulmonary cells from COPD mice) | response (secretion, mainly IL-17 and IL-22) ([2]; PBMC of COPD patients) | levels of IL-17 and IL-22 ([2]; PBMC of non-smokers and smokers) |
| --- | --- | --- | --- | --- | --- | --- | --- |
| CCCCCCCCCCCCCCCCCCCCCCCCCC(=O)N[C@@H](CO[C@H]1O[C@H](CO)[C@H](O)[C@H](O)[C@H]1O)[C@H](O)[C@H](O)CCCCCCCCCCCCCC [alpha-GalactosylCeramide] | failed to increase IL-17 production | higher levels | higher levels | higher production of IL-22 | absent |  |  |
| phytohemagglutinin [PHA] |  |  |  |  |  | partially altered | significantly increased |
